Test results as given in patent US7935705B2, “N-alkylated rifampin” (Medtronic, Inc., priority 2007, dated 2011).

Tests used:
[1] = after five EtO sterilization cycles; polymeric articles; cited from earlier work
[2] = tested on: Staphylococcus aureus (ATCC 29213); test: Disc zone of inhibition on agar plates coated with S. aureus; assay type: cell-based; conditions: for zone of inhibition: disc containing 5 μg, agar plates coated with S. aureus ATCC 29213, 35° C. for 24 hours
Method: The ability of the compound of Formula II to inhibit growth of Staphylococcus aureus (ATCC 29213) was determined in vitro. Briefly, agar plates were coated with S. aureus and discs containing 5 μg of rifampin and 5 μg of a compound of Formula II were placed on the coated plates. The plates were incubated at 35° C. for 24 hours and the zones of inhibition of the rifampin and the compound of Formula II were determined. The zone of inhibition for the rifampin loaded disc was 28 mm. The zone of inhibition for the disc with a compound of Formula II was 18 mm.

[3] = tested on: Staphylococcus aureus (ATCC 29213); test: Minimum Inhibitory Concentration (MIC) evaluation; assay type: cell-based; conditions: ATCC29213, S. aureus, in vitro, read-out: Baseline MIC

MIC [3] [µg/mL] | Compound | rifampin recoverable [1] [%] | zone of inhibition [2] [mm] | activity against Staphlococcus aureus ([2]; qualitative statement in summary)
– | 5,6,9,17,19,21-Hexahydroxy-23-methoxy-2,4,12,16,18,20,22-heptamethyl-8-[N-(4-methyl-1-piperazinyl)formimidoyl]-2,7-(epoxypentadeca[1,11,13]trienimino)-naphtho[2,1-b]furan-1,11(2H)-dione 21-acetate [rifampin] | 5 | 28 | –
2 to 4 | COC1/C=C/OC2(C)Oc3c(C)c(O)c4c(O)c(c(/C=N/N5CC[N+](C)(CC[O-])CC5)c(O)c4c3C2=O)NC(=O)/C(C)=C\C=C\C(C)C(O)C(C)C(O)C(C)C(OC(C)=O)C1C (centres unmarked) [compound of Formula II] | – | 18 | has activity
